Measured values from US20140336616A1, “DELIVERY DEVICE” (INTERNATIONAL SCIENTIFIC PTY LTD, priority 2012, published 2014).

Test system: excised human skin
Assay: Sodium fluorescein dye penetration into excised human skin in Franz cells, with LSCM imaging and image analysis
Assay type: in vitro ADME
Details: 300 μL NaF 1 mg/mL in saline, 15 minutes, 34-35° C.; images from 73 μm deep
Description: Microneedle Treatment: A piece of gauze was folded in half 4 times and then the skin sample placed on top. In-situ skin tension was approximately simulated by stretching the skin over the gauze and pinning in place. A pre-prepared microneedle impact applicator was then used to apply the microneedle to the skin at speed (approximately 3 m·s−1). This applicator consisted of a housing, a spring-loaded plunger and the banks of laser cut microneedles (two 3-needle banks gave a total of 6 microneedles). The banks were mounted into the plunger which was then drawn back, loading the spring, and held in place using a pin. Upon removal of the pin, the plunger accelerated towards the skin, driving the microneedles through the stratum corneum and into the viable epidermis and dermis.
Dye incubation in Franz Cells: A Franz cell was prepared by applying vacuum grease to the sealing surfaces of the receptor and donor. […]
Laser scanning confocal microscopy (LSCM): To prepare the samples for LSCM, a cut was made around the imprint made by the Franz cell. […] The LSCM machine was then switched to the fluorescent mode with 488 nm excitation and 550±88 nm emission band was recorded. […]
Image analysis: The image data names were encoded to blind the image analysis researcher. […] Image J (NIH, Bethesda, Md.) was then used to quantify fluorescence intensity and dye positive areas. […]

O=C1OC2(c3ccc(O)cc3Oc3cc(O)ccc32)c2ccccc21 [NaF, Sodium Fluorescein]
NaF dye penetration / fluorescence pattern (LSCM, visual): no penetration of the dye beyond the stratum corneum
